Legend:
[1] = test system: concanavalin A-induced dry eye in rabbits; assay: Concanavalin A (Con A)-induced dry eye disease (DED) model in rabbits: TBUT, Schirmer test, tear osmolarity, tear lactoferrin; format: in vivo, rabbit
Procedure: To assess the efficacy of PS on DED an improved concanavalin A model was used. In the concanavalin A model, dry eye is induced by injecting the lacrimal glands of a mammal with concanavalin A, a selective T cell mitogen that induces a lymphocytic infiltrate in these glands. The concanavalin A model is generally described in (Barabino S. Animal models of dry eye. Arch Soc Esp Oftalmol. 2005; 80(12):693-4). Concanavalin A was injected to the lacrimal glands under ultrasound guidance, thus eliminating injections to the vicinity of the gland (as opposed to the gland itself). The head and the tail of the major lacrimal gland of the rabbit were injected separately. The dose of concanavalin A was optimized for DED signs.
In the testing described below, four markers of DED are monitored: the tear break up time (TBUT), the Schirmer test, tear osmolarity, and tear lactoferrin levels. All assays were performed at the same clock time (±1 hr) to avoid assay variability on account of circadian variations.
In an efficacy experiment using the concanavalin A model, one group of rabbits was treated with compound 5, also known as phosphosulindac and abbreviated as PS, 1.5% eye drops and one group with vehicle. […] It is thus clear that PS applied topically suppresses DED.
Con A was injected under ultrasound guidance into all the lacrimal glands and the success of the injection was verified by a post-injection ultrasound image (see FIG. 1 and FIG. 2). […] This variation explains why the blind injections recommended in the original method are often unsuccessful. This was confirmed by mixing the Con A solution with methylene blue and tracking its course after injection. In about ⅓ of the cases, Con A ended up outside the gland.
Four parameters of efficacy were evaluated instead of the usual one or two. They include (a) the tear break up time (TBUT), determined using 0.2% fluorescein over the eye and recording the time taken to develop black dots, lines or obvious disruption of the fluorescein film; (b) tear osmolarity, measured using TearLab Osmolarity Test and following the manufacturer's instructions (TearLab Corp., San Diego, Calif.); (3) Schirmer tear test (STT), determined using Schirmer strips (EagleVision, Denville, N.J.) inserted between the cornea and the palpebral conjunctiva at the mid-point of the lower lid and measuring the length of moistened strip at 5 min; and (4) tear lactoferrin levels measured by ELISA kit (MyBiosource, San Diego, Calif.) following the instructions of the manufacturer. All four have been used in clinical practice and correlate with the clinical activity of the disease. The STT is the least reliable and, as result, it is clinically used less than half as frequently as TBUT.
The injections of Con A to the lacrimal glands were repeated weekly as needed. When longer than a 1-week periods of study are needed, repeat injections prolong dry eye for at least 3 weeks, making the originally acute model chronic.
PS Suppresses Con A—Induced Dry Eye in Rabbits. The effect of PS on dry eye was determined in New Zealand White (NZW) rabbits, 2-3 kg (Charles River Labs, Waltham, Mass.). These rabbits were housed singly in rooms with strict temperature (70±5° F.) and humidity (45±5%) control and acclimated for at least 2 weeks prior to induction of dry eye by injection of Con A as above. NZW rabbits with Con A-induced dry eye (three sets of injections) were treated with PS formulated as nanoparticles and administered topically as eye drops 3×/day for 21 days, starting on the day of Con A injection. […] Similar results were obtained on days 5 and 14 (data not shown).
Using this model, we compared the effect of PS to that of cyclosporine and lifitegrast. Rabbits were treated for 6 days with PS as above or cyclosporine 0.05% or lifitegrast 5% eye drops 3×/day. In addition to determining TUBT, osmolarity and STT, we measured the levels of IL-8 and IL-1β in the ILGs of the rabbits harvested at euthanasia. […]

MMP-1 = MMP-1 levels in cultured human conjunctival cells (ELISA); format: cell-based; conditions: for reduction of MMP-1 secreted into the culture medium: compared to controls; for levels of MMP-1 secreted into the culture medium: mean±SEM
Procedure: In an in vitro assay with purified MMP-1 (collagenase I) as […] it was shown that PS inhibited collagenase activity with an IC50 of <100 nM. In cultured human conjunctiva cells, PS suppressed MMP-1 by 75%-86%. In the lacrimal glands of rabbits with DED treated with PS eye drops, PS suppressed MMP-9 levels by 27% compared to vehicle treated rabbits (2.20±0.24 vs. 1.66±0.20 ng/mg protein; p<0.05; mean±SEM).
(§1) The Mechanism of Action of PS in Dry Eye. Tissue culture, animal and human studies have established inflammation as the core mechanism of DED^8. To determine the mechanism of action of PS in DED the response to PS of several factors known to play an important role in the inflammation associated with DED was explored. They include NF-κB; the cytokines TGF-β, IL-1 β, IL-6 and IL-8; the collagenases MMP-1 and MMP-9; and PGE2. In these studies we used human conjunctival epithelial cells, the Wong-Kilbourne derivative of Chang conjunctival cells (clone 1 to 5c-41 American Type Culture Collection (Manassas, Va.) certified cell line, 20.2).

NF-κB = NF-κB activation by EMSA in TNF-α-stimulated human conjunctival cells; format: cell-based; conditions: PS 5 h then TNF-α 10 ng/ml 1 h, FIG. 6A
Description: as §1
Human conjunctival cells were treated with various concentrations of PS. Five hours later, TNF-α was added to the culture medium to a final concentration of 10 ng/ml and the status of NF-κB activation was determined by EMSA 1 h later. […] Similarly, after 1 week of treatment, PS suppressed NF-κB activation in the ILG of rabbits with DED compared to those treated with vehicle.

IL-6 = IL-6 in culture medium of human conjunctival cells (ELISA); format: cell-based
Procedure: Cells were treated with PS 1×IC50 and 2 h later TNF-α was added to the medium to a final concentration of 10 ng/ml. Culture media were harvested 24 h later and the levels of TGF-β, IL-6 and IL-8 were determined by ELISA. Of note, the levels of IL-1β were below the limit of detection.

[2] = Baseline, PS 1.5% eye drops, Mean ± SEM
[3] = Con A DED rabbits, 6 days, eye drops 3×/day, PS nanoparticles, cyclosporine 0.05%, lifitegrast 5%, mean ± SEM
[4] = Day 13, PS 1.5% eye drops, Mean ± SEM
[5] = after 1 week of treatment, FIG. 5

## CCOP(=O)(OCC)OCCCCOC(=O)CC1=C(C)/C(=C/c2ccc([S+](C)[O-])cc2)c2ccc(F)cc21 (stereo not drawn) [PS, phosphosulindac]
[1]; [2]
  Schirmer test: 14.6 ± 0.9 mm
  TBUT: 52.3 ± 4.6 s
  Tear lactoferrin: 3.09 ± 0.4 ng/mg protein
[1]; [3]
  Osmolarity: 294 ± 4.6 mOsm/L
  STT: 12.3 ± 0.6 mm
  TBUT: 43.6 ± 4.0 s
[1]; Day 11, PS 1.5% eye drops, Mean ± SEM
  Schirmer test: 9.5 ± 1.0 mm
[1]; [4]
  TBUT: 56.0 ± 4.0 s
  Tear lactoferrin: 3.19 ± 0.2 ng/mg protein
[1]; PS nanoparticles eye drops 3×/day for 21 days, FIG. 4
  TBUT, tear osmolarity and tear lactoferrin levels: restored to normal
[1]; PS nanoparticles eye drops 3×/day for 21 days, difference from vehicle significant only for trend, FIG. 4
  STT value: improved
[1]; [5]
  STT: no significant effect
  TBUT and osmolarity: normalized
MMP-1; PS 1×IC50, 2 h
  reduction of MMP-1 secreted into the culture medium: 48%
  levels of MMP-1 secreted into the culture medium: 24.9±0.8
MMP-1; PS 1.5×IC50, 2 h
  reduction of MMP-1 secreted into the culture medium: 55%
  levels of MMP-1 secreted into the culture medium: 21.6±0.8
MMP-1; cultured human conjunctiva cells
  MMP-1 suppression: 75%-86%
NF-κB
  activation of NF-κB (EMSA): significantly suppressed
IL-6; TNF-α-stimulated, PS 1×IC50, media at 24 h
  IL-6 reduction: 95%
IL-6; unstimulated levels, PS 1×IC50
  IL-6 reduction: 84%

— US11510931B2, “Compositions and methods for treating ophthalmic conditions” (MEDICON PHARMACEUTICALS, INC., priority 2016, dated 2022)
